Experimental data as given in ChEMBL document CHEMBL5620408, “Discovery of novel diarypyrimidine derivatives bearing six-membered non-aromatic heterocycles as potent HIV-1 NNRTIs with improved anti-resistance and drug-like profiles” (Eur J Med Chem, 2023).
Activity calls are given as the source filed them. No cut-off for these calls is given here.

Key:
[1] = Selectivity index, ratio of CC50 for human MT4 cells to EC50 for antiviral activity against HIV IIIB
[2] = test system: Human immunodeficiency virus 1; details: RES056, MT4
Description: (§1) Antiviral activity against HIV1 RES056 infected in MT-4 cells assessed as viral induced cytopathic effect by MTT assay

[3] = Cytotoxicity against human MT4 cells assessed as reduction in cell viability by MTT assay; type: toxicity, cell-based
[4] = test system: Human immunodeficiency virus 1; assay: Antiviral activity against HIV1 NL4-3 infected in MT4 cells; type: functional, organism-based; details: Human immunodeficiency virus 1, NL4-3, MT4
[5] = target: Human immunodeficiency virus type 1 reverse transcriptase (Human immunodeficiency virus 1, UniProt Q72547); assay: Inhibition of wild type HIV-1 reverse transcriptase
MT4 = assay: Cytotoxicity against human MT4 cells; type: toxicity, cell-based
[6] = test system: Human immunodeficiency virus 1; assay: microbe, parasite or virus in culture; details: Human immunodeficiency virus 1, IIIB, MT4
Description: Antiviral activity against HIV1 IIIB infected in MT-4 cells assessed as viral induced cytopathic effect by MTT assay

[7] = test system: Human immunodeficiency virus 1; assay: microbe, parasite or virus in culture; details: Human immunodeficiency virus 1, RES056, MT4
Description: as §1

[8] = test system: Human immunodeficiency virus 1; assay: Antiviral activity against HIV1 harboring L100I mutant infected in MT4 cells; type: functional, organism-based; details: Human immunodeficiency virus 1, MT4
[9] = test system: Human immunodeficiency virus 1; assay: Antiviral activity against HIV1 harboring Y181C mutant infected in MT4 cells; type: functional, organism-based; details: Human immunodeficiency virus 1, MT4
[10] = test system: Human immunodeficiency virus 1; assay: Antiviral activity against HIV1 harboring K103N mutant infected in MT4 cells; type: functional, organism-based; details: Human immunodeficiency virus 1, MT4
[11] = test system: Human immunodeficiency virus 1; assay: Antiviral activity against HIV1 harboring E138K mutant infected in MT4 cells; type: functional, organism-based; details: Human immunodeficiency virus 1, MT4
[12] = test system: Human immunodeficiency virus 1; assay: Antiviral activity against HIV1 harboring F227L/V106A double mutant infected in MT4 cells; type: functional, organism-based; details: Human immunodeficiency virus 1, MT4
[13] = test system: Human immunodeficiency virus 1; assay: Antiviral activity against HIV1 harboring Y188L mutant infected in MT4 cells; type: functional, organism-based; details: Human immunodeficiency virus 1, MT4
[14] = Selectivity index, ratio of CC50 for human MT4 cells to EC50 for antiviral activity against HIV RES056
[15] = test system: Human immunodeficiency virus 1; assay: Antiviral activity against HIV1 NL4-3 infected in MT4 cells at 25 ng/ml; type: functional, organism-based

| SMILES | selectivity ratio [1] | Activity [2] | CC50 [3] [nM] | EC50 [4] [nM] | IC50 [5] [nM] | Activity (MT4) | EC50 [6] [nM] | EC50 [7] [nM] | EC50 [8] [nM] | EC50 [9] [nM] | EC50 [10] [nM] | EC50 [11] [nM] | EC50 [12] [nM] | EC50 [13] [nM] | selectivity ratio [14] | Activity [15] |
| --- | --- | --- | --- | --- | --- | --- | --- | --- | --- | --- | --- | --- | --- | --- | --- | --- |
| Cc1cc(/C=C/C#N)cc(C)c1Oc1ccnc(Nc2ccc(N3CCN(S(=O)(=O)C4CC4)CC3)c(F)c2)n1 | 32100 | inactive | 170000 | 5.67 | 100 | Non-Toxic | 5 |  |  |  |  |  |  |  |  |  |
| Cc1cc(/C=C/C#N)cc(C)c1Oc1ccnc(Nc2ccc(C3CCN(S(=O)(=O)C4CC4)CC3)cc2)n1 | > 7650 |  | > 37800 | 5.95 | 79 | Non-Toxic | 5 | > 37800 | 110 | 380 | 20 | 51 | 57 | > 37800 |  |  |
| Cc1cc(/C=C/C#N)cc(C)c1Oc1ccnc(Nc2ccc(C3CCN(S(C)(=O)=O)CC3)cc2)n1 | 1030 |  | 4300 | 6.23 | 44 | Non-Toxic | 4 | > 4300 | 92 | 320 | 14 | 30 | 42 | > 4300 | < 1 |  |
| Cc1cc(C#N)cc(C)c1Oc1ccnc(Nc2ccc(N3CCN(S(=O)(=O)C4CC4)CC3)cc2)n1 |  |  |  |  |  | Non-Toxic |  |  |  |  |  |  |  |  |  | inactive |
| Cc1cc(C#N)cc(C)c1Oc1ccnc(Nc2ccc(N3CCN(S(=O)(=O)N(C)C)CC3)cc2)n1 |  |  |  |  |  | Non-Toxic |  |  |  |  |  |  |  |  |  | inactive |
| Cc1cc(C#N)cc(C)c1Oc1ccnc(Nc2ccc(N3CCN(S(=O)(=O)C(C)C)CC3)cc2)n1 |  |  |  |  |  | Non-Toxic |  |  |  |  |  |  |  |  |  | inactive |
| Cc1cc(/C=C/C#N)cc(C)c1Oc1ccnc(Nc2ccc(N3CC[S+]([O-])CC3)c(F)c2)n1 | 9800 |  | 13300 |  | 27 |  | 1 | 1300 | 34 | 84 | 4 | 24 | 130 | 5120 | 10 |  |
| Cc1cc(C#N)cc(C)c1Oc1ccnc(Nc2ccc(N3CCN(S(=O)(=O)N(C)C)CC3)c(F)c2)n1 | 10300 |  | 186000 |  | 150 | Non-Toxic | 18 | > 186000 |  |  |  |  |  |  |  | inactive |
| CCS(=O)(=O)N1CCC(c2ccc(Nc3nccc(Oc4c(C)cc(C#N)cc4C)n3)cc2)CC1 |  |  |  |  |  | Non-Toxic |  |  |  |  |  |  |  |  |  | inactive |
| CCS(=O)(=O)N1CCN(c2ccc(Nc3nccc(Oc4c(C)cc(/C=C/C#N)cc4C)n3)cc2)CC1 | > 7740 |  | > 38600 | 2.18 | 100 | Non-Toxic | 5 | > 38600 | 450 | 810 | 48 | 85 | 240 | > 38600 |  |  |
| Cc1cc(/C=C/C#N)cc(C)c1Oc1ccnc(Nc2ccc(N3CCOCC3)c(F)c2)n1 | 49600 |  | 228000 |  | 46 |  | 5 | 840 | 27 | 44 | 5 | 25 | 100 | 4190 | 272 |  |
| Cc1cc(C#N)cc(C)c1Oc1ccnc(Nc2ccc(C3CCN(S(=O)(=O)C4CC4)CC3)cc2)n1 |  |  |  |  |  | Non-Toxic |  |  |  |  |  |  |  |  |  | inactive |
| Cc1cc(C#N)cc(C)c1Oc1ccnc(Nc2ccc(N3CCN(S(C)(=O)=O)CC3)cc2)n1 |  |  |  |  |  | Non-Toxic |  |  |  |  |  |  |  |  |  | inactive |
| Cc1cc(C#N)cc(C)c1Oc1ccnc(Nc2ccc(C3CCN(S(=O)(=O)N(C)C)CC3)cc2)n1 |  |  |  |  |  | Non-Toxic |  |  |  |  |  |  |  |  |  | inactive |
| CCS(=O)(=O)N1CCN(c2ccc(Nc3nccc(Oc4c(C)cc(C#N)cc4C)n3)cc2)CC1 |  |  |  |  |  | Non-Toxic |  |  |  |  |  |  |  |  |  | inactive |
| CCS(=O)(=O)N1CCN(c2ccc(Nc3nccc(Oc4c(C)cc(C#N)cc4C)n3)cc2F)CC1 | > 55100 |  | > 245000 | 10.2 | 58 | Non-Toxic | 4 | > 245000 | 130 | 190 | 21 | 64 | 55 | > 245000 |  |  |
| Cc1cc(C#N)cc(C)c1Oc1ccnc(Nc2ccc(C3CCN(S(=O)(=O)C(C)C)CC3)cc2)n1 |  |  |  |  |  | Non-Toxic |  |  |  |  |  |  |  |  |  | inactive |
| Cc1cc(/C=C/C#N)cc(C)c1Oc1ccnc(Nc2ccc(N3CCN(S(=O)(=O)C(C)C)CC3)c(F)c2)n1 | 3620 |  | 18100 | 5.3 | 97 | Non-Toxic | 5 | 5880 | 42 | 94 | 7 | 29 | 100 | > 18100 | 3 |  |
| Cc1cc(/C=C/C#N)cc(C)c1Oc1ccnc(Nc2ccc(N3CCN(S(C)(=O)=O)CC3)c(F)c2)n1 | 1710 |  | 3210 | 0.48 | 40 | Non-Toxic | 2 | 670 | 22 | 30 | 3 | 11 | 34 | > 3210 | 5 |  |
| Cc1cc(C#N)cc(C)c1Oc1ccnc(Nc2ccc(C3CCN(S(C)(=O)=O)CC3)cc2)n1 |  |  |  |  |  | Non-Toxic |  |  |  |  |  |  |  |  |  | inactive |
| Cc1cc(/C=C/C#N)cc(C)c1Oc1ccnc(Nc2ccc(N3CCN(S(C)(=O)=O)CC3)cc2)n1 | 536 |  | 2570 | 1.84 | 65 | Non-Toxic | 5 | > 2570 | 370 | 960 | 37 | 850 | 270 | > 2570 | < 1 |  |
| Cc1cc(/C=C/C#N)cc(C)c1Oc1ccnc(Nc2ccc(N3CCN(S(=O)(=O)N(C)C)CC3)c(F)c2)n1 | 993 |  | 4590 | 5.67 | 78 | Non-Toxic | 5 | > 4590 | 58 | 120 | 9 | 32 | 68 | > 4590 | < 1 |  |
| CCS(=O)(=O)N1CCN(c2ccc(Nc3nccc(Oc4c(C)cc(/C=C/C#N)cc4C)n3)cc2F)CC1 | 37900 |  | 111000 | 1.64 | 54 | Non-Toxic | 3 | 1730 | 21 | 30 | 4 | 15 | 36 | > 111000 | 64 |  |
